Test results taken from patent US20120135013A1, “CD45 and Methods and Compounds Related Thereto” (priority 2007, published 2012).

What was measured:
Cdc25B [1] = molecular target: T1, Cdc25B (Homo sapiens, UniProt P30305); test: biochemical; settings: read-out: % Inhibition (cdc25B)
T1 sequence (P30305 1-580): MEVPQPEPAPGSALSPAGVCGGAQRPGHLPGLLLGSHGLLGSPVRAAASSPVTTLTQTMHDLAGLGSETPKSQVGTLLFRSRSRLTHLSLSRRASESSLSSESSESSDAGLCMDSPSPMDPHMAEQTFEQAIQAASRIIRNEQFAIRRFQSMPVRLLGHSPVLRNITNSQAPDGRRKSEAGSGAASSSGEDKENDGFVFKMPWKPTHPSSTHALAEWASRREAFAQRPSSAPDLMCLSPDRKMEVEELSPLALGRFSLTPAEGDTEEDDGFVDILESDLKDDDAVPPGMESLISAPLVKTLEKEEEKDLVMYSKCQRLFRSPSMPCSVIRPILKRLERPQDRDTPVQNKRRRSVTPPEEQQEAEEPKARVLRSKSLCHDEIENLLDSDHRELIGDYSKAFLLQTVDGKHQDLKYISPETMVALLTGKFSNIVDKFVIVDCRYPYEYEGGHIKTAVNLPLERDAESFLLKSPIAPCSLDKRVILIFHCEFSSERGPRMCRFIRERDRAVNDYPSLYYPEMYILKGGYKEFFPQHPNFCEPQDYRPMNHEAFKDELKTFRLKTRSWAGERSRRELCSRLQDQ

LF = LF (Bacillus anthracis, UniProt P15917); type: biochemical
Chain of LF (P15917 34-809 limits assumed): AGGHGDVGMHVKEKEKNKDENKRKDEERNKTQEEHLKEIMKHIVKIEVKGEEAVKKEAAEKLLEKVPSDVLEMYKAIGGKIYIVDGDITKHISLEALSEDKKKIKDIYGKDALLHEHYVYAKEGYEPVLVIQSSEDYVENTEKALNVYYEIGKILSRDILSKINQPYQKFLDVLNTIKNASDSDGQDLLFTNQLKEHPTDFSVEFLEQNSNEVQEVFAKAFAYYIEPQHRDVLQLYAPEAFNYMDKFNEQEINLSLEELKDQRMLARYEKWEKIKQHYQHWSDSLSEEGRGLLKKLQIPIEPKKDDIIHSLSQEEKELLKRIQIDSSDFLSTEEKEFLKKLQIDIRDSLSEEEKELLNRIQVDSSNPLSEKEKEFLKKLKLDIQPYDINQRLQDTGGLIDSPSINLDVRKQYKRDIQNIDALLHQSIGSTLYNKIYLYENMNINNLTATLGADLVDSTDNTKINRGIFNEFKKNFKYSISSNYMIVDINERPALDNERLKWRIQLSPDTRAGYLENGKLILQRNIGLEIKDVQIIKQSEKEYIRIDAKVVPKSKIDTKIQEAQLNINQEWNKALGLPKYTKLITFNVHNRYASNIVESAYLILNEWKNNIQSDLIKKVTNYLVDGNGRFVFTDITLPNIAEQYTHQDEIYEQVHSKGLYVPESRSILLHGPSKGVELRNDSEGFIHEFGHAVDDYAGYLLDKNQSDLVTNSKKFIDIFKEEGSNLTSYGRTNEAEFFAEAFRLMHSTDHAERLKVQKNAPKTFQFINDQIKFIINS

[2] = system: Sterne B. anthracis spores; type: cell-based; settings: 10 μM
proteasome = type: biochemical, mouse
Cdc25B [3] = molecular target: T1, Cdc25B; settings: Lazo et al. (2002); cited from earlier work
CD45 [4] = molecular target: T2, CD45 (Homo sapiens, UniProt P08575); test: biochemical; settings: read-out: inhibition of the phosphatase activity of CD45
T2 construct: purchased Upstate (Lake Placid, N.Y.)
T2 sequence (P08575 26-1306): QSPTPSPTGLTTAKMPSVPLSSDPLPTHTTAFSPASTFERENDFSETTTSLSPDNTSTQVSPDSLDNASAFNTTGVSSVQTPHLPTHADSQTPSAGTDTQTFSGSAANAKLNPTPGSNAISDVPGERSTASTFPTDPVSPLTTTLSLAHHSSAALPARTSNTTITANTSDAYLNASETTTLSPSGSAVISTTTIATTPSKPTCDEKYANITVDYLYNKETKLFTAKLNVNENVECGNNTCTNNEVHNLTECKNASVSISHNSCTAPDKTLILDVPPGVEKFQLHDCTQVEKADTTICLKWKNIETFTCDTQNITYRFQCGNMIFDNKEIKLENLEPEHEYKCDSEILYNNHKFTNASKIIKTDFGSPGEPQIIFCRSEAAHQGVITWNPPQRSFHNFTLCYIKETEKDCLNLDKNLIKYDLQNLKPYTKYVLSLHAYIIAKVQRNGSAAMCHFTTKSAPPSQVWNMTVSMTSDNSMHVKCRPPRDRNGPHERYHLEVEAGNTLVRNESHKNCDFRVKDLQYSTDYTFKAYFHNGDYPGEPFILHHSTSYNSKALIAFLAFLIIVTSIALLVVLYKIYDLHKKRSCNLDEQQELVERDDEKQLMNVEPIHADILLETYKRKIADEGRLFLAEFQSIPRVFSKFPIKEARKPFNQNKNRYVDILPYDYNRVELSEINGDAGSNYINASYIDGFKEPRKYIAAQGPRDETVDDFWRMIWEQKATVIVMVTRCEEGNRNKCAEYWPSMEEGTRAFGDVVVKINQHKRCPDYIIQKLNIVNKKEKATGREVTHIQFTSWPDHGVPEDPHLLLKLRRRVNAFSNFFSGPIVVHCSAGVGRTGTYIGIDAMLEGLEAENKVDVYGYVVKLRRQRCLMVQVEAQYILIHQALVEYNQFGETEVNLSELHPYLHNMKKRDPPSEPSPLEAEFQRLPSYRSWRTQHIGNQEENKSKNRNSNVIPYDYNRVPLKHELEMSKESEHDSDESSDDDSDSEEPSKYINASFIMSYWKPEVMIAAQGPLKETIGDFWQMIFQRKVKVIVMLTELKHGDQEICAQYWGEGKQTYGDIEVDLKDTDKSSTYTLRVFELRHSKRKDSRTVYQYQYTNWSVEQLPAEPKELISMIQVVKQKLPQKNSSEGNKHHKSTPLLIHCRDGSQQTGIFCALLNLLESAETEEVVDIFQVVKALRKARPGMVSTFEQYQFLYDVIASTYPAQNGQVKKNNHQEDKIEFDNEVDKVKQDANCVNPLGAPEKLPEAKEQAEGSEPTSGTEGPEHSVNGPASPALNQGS

CD45 [5] = test: CD45 phosphatase activity after immunoprecipitation from cell lysates; type: cell-based, mouse; settings: 8 μM, 72 hours
Ames B. anthracis spores = settings: in vivo
MEK = type: cell-based, mouse
CD45 [6] = test: immunoblot of CD45 protein levels; type: cell-based, mouse; settings: 72 hours, vs untreated or scrambled PMO

| Compound | inhibition at 10 µM (Cdc25B [1]) [%] | inhibition of LF enzymatic activity (cleavage of peptide substrate) (LF) | anti-microbial activity (growth of the bacteria) [2] | inhibition of proteasome activity (proteasome) | inhibition of Cdc25, previously reported (Cdc25B [3]) | other results |
| --- | --- | --- | --- | --- | --- | --- |
| NC(=O)CCCSC1=CC(=O)c2ccccc2C1=O [NSC 270012] | 72 | None of the compounds were observed to inhibit | do not inhibit the growth of the bacteria | neither NSC 95397 nor NSC 270012 inhibited proteasome activity |  |  |
| O=C1C(SCCO)=C(SCCO)C(=O)c2ccccc21 [NSC 95397] | 83 | None of the compounds were observed to inhibit | do not inhibit the growth of the bacteria | neither NSC 95397 nor NSC 270012 inhibited proteasome activity | previously reported to inhibit Cdc25 | inhibition at 10 µM (CD45 [4]): ~94% |
| Cc1ccc2c(c1C)-c1c(ccc(C)c1C)C(=O)C2=O [NSC 135880] | 99 | None of the compounds were observed to inhibit |  |  | previously reported to inhibit Cdc25 |  |
| NC(=O)CCSC1=CC(=O)c2ccccc2C1=O [NSC 270011] | 25 | None of the compounds were observed to inhibit |  |  |  |  |
| CD45 PMO (CCACAAACCCATGGTCATATC; all phosphorodiamidate morpholino (PMO)) |  |  |  |  |  | CD45 phosphatase activity following immunoprecipitation (CD45 [5]): concomitant reduction in CD45 phosphatase activity; antibody titers in surviving mice (Ames B. anthracis spores): developed protective antigen specific and lethal toxin neutralizing antibody titers; protection on re-challenge with Ames B. anthracis spores (Ames B. anthracis spores): completely protected; survival (Ames B. anthracis spores; 100 mg/kg/day): greatly increased; MEK cleavage (MEK): MEK cleavage was not prevented; CD45 protein levels by immunoblot (CD45 [6]): dose dependent reduction |
| O=C1C=C(SCCO)C(=O)c2ccccc21 [NSC 148596] | 67 | None of the compounds were observed to inhibit |  |  |  |  |
